Assay results: US11691992B2 (Anacor Pharmaceuticals, Inc., priority 2017, dated 2023)
Read-outs that look alike come from different tables or passages of the source.

Assays:
Format in all cases: cell-based
[1] = test system: bloodstream-form trypanosome T. brucei brucei 427 strain; test: Trypanosoma brucei brucei high-throughput screening assay (resazurin)
Experimental: Example 105. Trypanosoma brucei brucei High-Throughput Screening Assay Procedure
All experiments were conducted with the bloodstream-form trypanosome T. brucei brucei 427 strain obtained from Seattle Biomedical Research Institute (Seattle, Wash.). Parasites were cultured in T-25 vented cap flasks and kept in humidified incubators at 37° C. and 5% CO2. The parasite culture media was complete HMI-9 medium containing 10% FBS, 10% Serum Plus medium and penicillin/streptomycin. To ensure log growth phase, trypanosomes were sub-cultured at appropriate dilutions every 2-3 days. Approximately 50 microliters of log phase cultures were diluted 1:10 in HMI-9 and 10 μL of the diluted culture was removed and counted using a hemocytometer to determine parasite concentration. Parasites were diluted by addition of an appropriate volume of HMI-9 to achieve a final parasite concentration of 2×10^5/mL. Compounds of the invention to be tested were serially diluted in DMSO and 0.5 μL added to 49.5 μL HMI-9 in triplicate 96-well plates using a Biomek NX liquid handler. Parasites from the diluted stock were added to each well (50 μL) using a Multidrop 384 dispenser to give a final concentration of 1.0×10^5/ml parasites in […] for DMSO. Trypanosomes were incubated with compounds for 72 hrs at 37° C. with 5% CO2. Resazurin (20 μL of 12.5 mg/ml stock) from Sigma-Aldrich was added to each well and plates were incubated for an additional 2-4 hrs. Assay plates were read using an EnVision plate reader at an excitation wavelength of 544 nm and emission of 590 nm. Triplicate data points were averaged to generate sigmoidal dose response curve and determine IC50 values using XLfit curve fitting software from IDBS (Guildford, UK).

[2] = test system: IL3000 T. congolense (drug sensitive) strain; test: In vitro Alamar Blue 72 h drug sensitivity assay for T. congolense
How it was run: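 Bloodstream-form trypanosomes in HMI medium with 20% bovine serum, exposed to compound for 69 h at 34 °C, 5% CO2, then resazurin for 3 h more. Fluorescence read at 536/588 nm. IC50 from 11-point sigmoidal dose-response curves, at least three independent runs.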

[3] = test system: bloodstream forms of T. b. rhodesiense STIB 900; test: T. brucei rhodesiense STIB 900 growth inhibition assay; conditions: Trypanosoma brucei, 72 h
How it was run: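 Bloodstream-form STIB 900 (10^4/well) were cultured in supplemented MEM with 15% horse serum and compound (90 to 0.123 μg/ml, 3-fold steps) for 72 h at 37 °C, 5% CO2. Viability was read by Alamar Blue fluorescence (ex 536/em 588 nm) after a further 2-4 h.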

[4] = test system: L. infantum MHOM/MA(BE)/67 amastigotes in primary peritoneal mouse macrophages; test: Leishmania infantum intracellular amastigote assay in mouse macrophages; conditions: Macrophage, 120 h
How it was run: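 Amastigotes harvested from infected hamster spleen infected primary peritoneal mouse macrophages (5×10^5 amastigotes/well, 2 h, 37 °C). Compounds then present 5 d at 37 °C, 5% CO2. Parasite burden counted by microscopy after Giemsa staining, as % of untreated controls; IC50 from sigmoidal variable-slope fit.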

[5] = test system: TdTomato-modified T. cruzi (CL strain) in Vero cells; test: In vitro IC50 measurement of T. cruzi amastigote killing using TdTomato-modified T. cruzi (CL strain); conditions: Trypanosoma cruzi, 72 h, fluorescence, read-out: IC50: I Org. amastigote Growth T. cruzi CL TdTomato, 3 d
How it was run: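 Vero cells were infected with tdTomato-expressing CL-strain parasites and dosed at 5 uM–5 nM. Fluorescence (ex 544/em 612 nm) was read at day 0 and again after 72 h at 37 °C, with day 0 values subtracted. IC50 and IC90 came from nonlinear regression.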

[6] = test system: Trypanosoma brucei rhodesiense STIB 900 strain; test: Trypanosoma brucei rhodesiense STIB 900 screening assay; conditions: STIB 900 bloodstream forms, 72 h, Alamar Blue, protocol of Example 114, read-out: Swiss TPH T b rhodesiense IC50
Experimental: Example 114. Trypanosoma brucei rhodesiense STIB 900 Screening Assay Procedure
The Trypanosoma brucei rhodesiense STIB 900 strain was isolated in 1982 from a human patient in Tanzania and after several mouse passages cloned and adapted to axenic culture conditions (Baltz, et al., EMBO Journal 4: 1273-1277 (1985); Thuita, et al., Acta Tropica 108: 6-10 (2008)). Minimum Essential Medium (50 μL) supplemented with 25 mM HEPES, 1 g/L additional glucose, 1% MEM non-essential amino acids (100×), 0.2 mM 2-mercaptoethanol, 1 mM Na-pyruvate and 15% heat inactivated horse serum was added to each well of a 96-well microtiter plate. Serial drug dilutions of seven 3-fold steps covering a range from 90 to 0.123 μg/mL were prepared. Then 10^4 bloodstream forms of T. b. rhodesiense STIB 900 in 50 μL was added to each well and the plate incubated at 37° C. under a 5% CO2 atmosphere for 72 h. 10 μL Alamar Blue (resazurin, 12.5 mg in 100 mL double-distilled water) was then added to each well and incubation continued for a further 2-4 h (Raz, et al., Acta Tropica 68: 139-47 (1997)). Then the plates were read with a Spectramax Gemini XS microplate fluorometer (Molecular Devices Corporation, Sunnyvale, Calif., USA) using an excitation wavelength of 536 nm and an emission wavelength of 588 nm. Data were transferred into the graphic program Softmax Pro (Molecular Devices), which calculated IC50 values.

[7] = bloodstream form, 72 hrs incubation, resazurin, read-out: IC50: I Org. Growth T. brucei brucei SBRI 427, 3 d
[8] = Trypanosoma congolense; bloodstream form, 69 h + 3 h resazurin, 34° C.; classes A-C; read-out: IC50: I Org. Growth T. congolense IL-3000, 3 d
[9] = bloodstream forms, Alamar Blue, protocol of Example 110, read-out: IC50: I Org. Growth T. brucei rhodesiense STIB 900, 3 d
[10] = amastigotes in primary peritoneal mouse macrophages, 5 d, Giemsa staining, read-out: Inhibition of Organism Growth in Leishmania infantum MHOM/MA/BE/67, 5 d
[11] = 72 h, read-out: IC50: I Org. Growth T. brucei brucei SBRI 427, 3 d [uM]
[12] = read-out: IC50: I Org. Growth T. brucei rhodesiense STIB 900, 3 d [uM]
[13] = read-out: Inhibition of Organism Growth in Leishmania infantum MHOM/MA/BE/67, 5 d [uM]
[14] = Trypanosoma congolense; read-out: inhibition of T. congolense IL-3000 growth at a concentration of 1.0 μM (classes D, E)

IC50 [1, 7] [µM]	Structure (SMILES)	IC50 [2, 8] [nM]	IC50 [3, 9] [µM]	IC50 [4, 10] [µM]	IC50 [6] [nM]	other results
0.075 to 0.15	Cc1c(C(=O)Nc2ccc3c(c2)B(O)OC3)nnn1-c1ccc(Cl)cc1 [Example 90, 1-(4-chlorophenyl)-N-(1-hydroxy-1,3-dihydrobenzo[c][1,2]oxaborol-6-yl)-5-methyl-1H-1,2,3-triazole-4-carboxamide]	–	–	–	–	–
0.075 to 0.15	Cn1nc(C(=O)Nc2ccc3c(c2)B(O)OC3)nc1-c1ccccc1 [Example 102, N-(1-Hydroxy-1,3-dihydrobenzo[c][1,2]oxaborol-6-yl)-1-methyl-5-phenyl-1H-1,2,4-triazole-3-carboxamide]	–	< 0.1	< 3	–	–
0.151 to 10	Cn1nc(-c2ccccc2)nc1C(=O)Nc1ccc2c(c1)B(O)OC2 [Example 96, N-(1-hydroxy-1,3-dihydrobenzo[c][1,2]oxaborol-6-yl)-1-methyl-3-phenyl-1H-1,2,4-triazole-5-carboxamide]	–	–	–	–	inhibition at 1 µM [2, 14]: < 75%
0.151 to 10	Cn1nc(-c2ccc(F)cc2)nc1C(=O)Nc1ccc2c(c1)B(O)OC2 [Example 97, 3-(4-fluorophenyl)-N-(1-hydroxy-1,3-dihydrobenzo[c][1,2]oxaborol-6-yl)-1-methyl-1H-1,2,4-triazole-5-carboxamide]	–	–	–	–	inhibition at 1 µM [2, 14]: < 75%
0.075 to 0.15	O=C(Nc1ccc2c(c1)B(O)OC2)c1nc(-c2ccccc2)n[nH]1 [Example 101, N-(1-hydroxy-1,3-dihydrobenzo[c][1,2]oxaborol-6-yl)-3-phenyl-1H-1,2,4-triazole-5-carboxamide]	–	–	–	–	inhibition at 1 µM [2, 14]: > 75%
0.075 to 0.15	Cn1nc(C(=O)Nc2ccc3c(c2)B(O)OC3)nc1-c1ccc(F)cc1 [Example 100, 5-(4-Fluorophenyl)-N-(1-hydroxy-1,3-dihydrobenzo[c][1,2]oxaborol-6-yl)-1-methyl-1H-1,2,4-triazole-3-carboxamide]	–	–	–	–	–
< 0.075	Cn1nc(C(=O)Nc2ccc3c(c2)B(O)OC3)nc1-c1ccccn1 [Example 80, N-(1-hydroxy-1,3-dihydrobenzo[c][1,2]oxaborol-6-yl)-1-methyl-5-(pyridin-2-yl)-1H-1,2,4-triazole-3-carboxamide]	100 to 300	0.1 to 0.3	< 3	–	–

Second part, the compound before the results:

Structure (SMILES)	IC50 [1, 7] [µM]	IC50 [2, 8] [nM]	IC50 [3, 9] [µM]	IC50 [4, 10] [µM]	IC50 [6] [nM]	other results
Cc1cccc(-n2nnc(C(=O)Nc3ccc4c(c3)B(O)OC4)c2C)n1 [Example 81, N-(1-hydroxy-1,3-dihydrobenzo[c][1,2]oxaborol-6-yl)-5-methyl-1-(6-methylpyridin-2-yl)-1H-1,2,3-triazole-4-carboxamide]	–	< 100	0.1 to 0.3	3 to 19.9	100 to 250	IC50 [5]: 1100 to 10000 nM
COc1cccc(-n2nnc(C(=O)Nc3ccc4c(c3)B(O)OC4)c2C)n1 [Example 65, N-(1-hydroxy-1,3-dihydrobenzo[c][1,2]oxaborol-6-yl)-1-(6-methoxypyridin-2-yl)-5-methyl-1H-1,2,3-triazole-4-carboxamide]	–	< 100	< 0.1	< 3	< 100	IC50 [5]: < 600 nM
O=C(Nc1ccc2c(c1)B(O)OC2)c1cn(-c2cccnc2)nn1 [Example 63, N-(1-hydroxy-1,3-dihydrobenzo[c][1,2]oxaborol-6-yl)-1-(pyridin-3-yl)-1H-1,2,3-triazole-4-carboxamide]	–	< 100	0.1 to 0.3	20 to 100	100 to 250	IC50 [5]: 1100 to 10000 nM
O=C(Nc1ccc2c(c1)B(O)OC2)c1nc(-c2ccccn2)n[nH]1 [Example 94, N-(1-hydroxy-1,3-dihydrobenzo[c][1,2]oxaborol-6-yl)-3-(pyridin-2-yl)-1H-1,2,4-triazole-5-carboxamide]	–	–	–	–	–	IC50 [1, 11]: < 0.075 µM; inhibition at 1 µM ([2]; Trypanosoma congolense, read-out: inhibition of T. congolense IL-3000 growth at a concentration of 1.0 μM (classes D, E)): > 75%; IC50 [3, 12]: < 0.1 µM; IC50 [4, 13]: 3 to 19.9 µM
Cc1cccc(-n2cc(C(=O)Nc3ccc4c(c3)B(O)OC4)nn2)n1 [Example 57, N-(1-hydroxy-1,3-dihydrobenzo[c][1,2]oxaborol-6-yl)-1-(6-methylpyridin-2-yl)-1H-1,2,3-triazole-4-carboxamide]	–	< 100	< 0.1	< 3	< 100	IC50 [5]: < 600 nM
O=C(Nc1ccc2c(c1)B(O)OC2)c1nc(-c2ccc(F)cc2)n[nH]1 [Example 99, 3-(4-Fluorophenyl)-N-(1-hydroxy-1,3-dihydrobenzo[c][1,2]oxaborol-6-yl)-1H-1,2,4-triazole-5-carboxamide]	–	–	–	–	–	IC50 [1, 11]: < 0.075 µM; IC50 [3, 12]: 0.1 to 0.3 µM; IC50 [4, 13]: < 3 µM
Cn1nc(-c2ccccn2)nc1C(=O)Nc1ccc2c(c1)B(O)OC2 [Example 95, N-(1-hydroxy-1,3-dihydrobenzo[c][1,2]oxaborol-6-yl)-1-methyl-3-(pyridine-2-yl)-1H-1,2,4-triazole-5-carboxamide]	–	–	–	–	–	IC50 [1, 11]: 0.151 to 10 µM
Cn1nc(C(=O)Nc2ccc3c(c2)B(O)OC3(C)C)nc1-c1ccccc1 [Example 103, N-(1-hydroxy-3,3-dimethyl-1,3-dihydrobenzo[c][1,2]oxaborol-6-yl)-1-methyl-5-phenyl-1H-1,2,4-triazole-3-carboxamide]	–	–	0.31 to 10	3 to 19.9	< 100	–
O=C(Nc1ccc2c(c1)B(O)OC2)c1nc(-c2cccnc2)n[nH]1 [Example 98, N-(1-hydroxy-1,3-dihydrobenzo[c][1,2]oxaborol-6-yl)-3-(pyridin-3-yl)-1H-1,2,4-triazole-5-carboxamide]	–	–	–	–	–	IC50 [1, 11]: 0.151 to 10 µM
